Measured values taken from PubChem BioAssay AID2060615 (Molecular Pharmacology Branch, DTP, NCI, 2025).
pIC50: −log10 of the molar value.

Tested on: 496974-208-R-J2-PDC complex spheroids, growth % test/control
Assay: Anticancer human tumor 496974-208-R-J2-PDC patient-derived pancreatic carcinoma cell line growth inhibition [CLK]
Settings: for pIC50: curve of first compound; for viability, T/C: stronger effect = lower value
Outline: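 Patient-derived tumor cells grown as complex spheroids with HUVEC endothelial cells and mesenchymal stem cells, treated with drug combinations. Concentrations descend in half-log steps from near clinical Cmax, or from 10 microM if Cmax unknown.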
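Also: spheroids exposed to the drugs for 7 days before readout.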
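For viability, T/C in this document: 100% = DMSO vehicle control wells.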

With `C=CC(=O)Nc1cc(Nc2nccc(-c3cn(C)c4ccccc34)n2)c(OC)cc1N(C)CCN(C)C` + CN1CCN(c2cc(C(=O)Nc3cc4cc(-c5cnn(C)c5)ccc4cn3)ccn2)CC1 the pIC50 (second compound 0.0316 µM) was under 6.52, the pIC50 (second compound 0.1 µM) was under 6.52 and the pIC50 (second compound 0.316 µM) was over 9.02. The pIC50 (second compound 1 µM) was over 9.02, the pIC50 (second compound 3.16 µM) was over 9.02 and the pIC50 (second compound 10 µM) was over 9.02. It also gave a viability, T/C (second compound 0.0316 µM, first compound 0.000949 µM) of 104%, a viability, T/C (second compound 0.0316 µM, first compound 0.003 µM) of 100% and a viability, T/C (second compound 0.0316 µM, first compound 0.00949 µM) of 94.9%. The viability, T/C (second compound 0.0316 µM, first compound 0.03 µM) was 86.5%, the viability, T/C (second compound 0.0316 µM, first compound 0.0949 µM) was 85.7% and the viability, T/C (second compound 0.0316 µM, first compound 0.3 µM) was 60.6%. The viability, T/C (second compound 0.1 µM, first compound 0.000949 µM) was 77.1%, the viability, T/C (second compound 0.1 µM, first compound 0.003 µM) was 86.2% and the viability, T/C (second compound 0.1 µM, first compound 0.00949 µM) was 80.8%. For the same compound, the viability, T/C (second compound 0.1 µM, first compound 0.03 µM) was 74.3%, the viability, T/C (second compound 0.1 µM, first compound 0.0949 µM) was 70.8% and the viability, T/C (second compound 0.1 µM, first compound 0.3 µM) was 50%. For the same compound, the viability, T/C (second compound 0.316 µM, first compound 0.000949 µM) was 6.91%, the viability, T/C (second compound 0.316 µM, first compound 0.003 µM) was 7.98% and the viability, T/C (second compound 0.316 µM, first compound 0.00949 µM) was 5.85%. For the same compound, the viability, T/C (second compound 0.316 µM, first compound 0.03 µM) was 4.61%, the viability, T/C (second compound 0.316 µM, first compound 0.0949 µM) was 6.12% and the viability, T/C (second compound 0.316 µM, first compound 0.3 µM) was 4.42%. It also gave a viability, T/C (second compound 1 µM, first compound 0.000949 µM) of 0.32%, a viability, T/C (second compound 1 µM, first compound 0.003 µM) of 0.55% and a viability, T/C (second compound 1 µM, first compound 0.00949 µM) of 1.29%. It also gave a viability, T/C (second compound 1 µM, first compound 0.03 µM) of 0.51%, a viability, T/C (second compound 1 µM, first compound 0.0949 µM) of 2.8% and a viability, T/C (second compound 1 µM, first compound 0.3 µM) of 0.65%. For the same compound, the viability, T/C (second compound 3.16 µM, first compound 0.000949 µM) was 0.42%, the viability, T/C (second compound 3.16 µM, first compound 0.003 µM) was 1.96% and the viability, T/C (second compound 3.16 µM, first compound 0.00949 µM) was 1.14%. It also gave a viability, T/C (second compound 3.16 µM, first compound 0.03 µM) of 0.42%, a viability, T/C (second compound 3.16 µM, first compound 0.0949 µM) of 2.24% and a viability, T/C (second compound 3.16 µM, first compound 0.3 µM) of 1.33%. For the same compound, the viability, T/C (second compound 10 µM, first compound 0.000949 µM) was 0.31%, the viability, T/C (second compound 10 µM, first compound 0.003 µM) was 0.31% and the viability, T/C (second compound 10 µM, first compound 0.00949 µM) was 0.31%. It also gave a viability, T/C (second compound 10 µM, first compound 0.03 µM) of 0.85%, a viability, T/C (second compound 10 µM, first compound 0.0949 µM) of 2.25% and a viability, T/C (second compound 10 µM, first compound 0.3 µM) of 2.99%.

In the case of `CC1(C)CCC(CN2CCN(c3ccc(C(=O)NS(=O)(=O)c4ccc(NCC5CCOCC5)c([N+](=O)[O-])c4)c(Oc4cnc5[nH]ccc5c4)c3)CC2)=C(c2ccc(Cl)cc2)C1` + CN1CCN(c2cc(C(=O)Nc3cc4cc(-c5cnn(C)c5)ccc4cn3)ccn2)CC1, the pIC50 (second compound 0.0316 µM) was under 5.00, the pIC50 (second compound 0.1 µM) was 5.09 and the pIC50 (second compound 0.316 µM) was over 7.50. It also gave a pIC50 (second compound 1 µM) of over 7.50, a pIC50 (second compound 3.16 µM) of over 7.50 and a pIC50 (second compound 10 µM) of over 7.50. The viability, T/C (second compound 0.0316 µM, first compound 0.0316 µM) was 93.7%, the viability, T/C (second compound 0.0316 µM, first compound 0.1 µM) was 95.9% and the viability, T/C (second compound 0.0316 µM, first compound 0.316 µM) was 101%. The viability, T/C (second compound 0.0316 µM, first compound 1 µM) was 104%, the viability, T/C (second compound 0.0316 µM, first compound 3.16 µM) was 92.1% and the viability, T/C (second compound 0.0316 µM, first compound 10 µM) was 50.8%. The viability, T/C (second compound 0.1 µM, first compound 0.0316 µM) was 80.3%, the viability, T/C (second compound 0.1 µM, first compound 0.1 µM) was 77.9% and the viability, T/C (second compound 0.1 µM, first compound 0.316 µM) was 86.7%. For the same compound, the viability, T/C (second compound 0.1 µM, first compound 1 µM) was 87.7%, the viability, T/C (second compound 0.1 µM, first compound 3.16 µM) was 84.9% and the viability, T/C (second compound 0.1 µM, first compound 10 µM) was 42.3%. The viability, T/C (second compound 0.316 µM, first compound 0.0316 µM) was 5.92%, the viability, T/C (second compound 0.316 µM, first compound 0.1 µM) was 5.59% and the viability, T/C (second compound 0.316 µM, first compound 0.316 µM) was 5.97%. The viability, T/C (second compound 0.316 µM, first compound 1 µM) was 6.42%, the viability, T/C (second compound 0.316 µM, first compound 3.16 µM) was 3.9% and the viability, T/C (second compound 0.316 µM, first compound 10 µM) was 5.66%. For the same compound, the viability, T/C (second compound 1 µM, first compound 0.0316 µM) was 0.75%, the viability, T/C (second compound 1 µM, first compound 0.1 µM) was 0.68% and the viability, T/C (second compound 1 µM, first compound 0.316 µM) was 0.5%. For the same compound, the viability, T/C (second compound 1 µM, first compound 1 µM) was 0.5%, the viability, T/C (second compound 1 µM, first compound 3.16 µM) was 0.63% and the viability, T/C (second compound 1 µM, first compound 10 µM) was 2.1%. It also gave a viability, T/C (second compound 3.16 µM, first compound 0.0316 µM) of 0.5%, a viability, T/C (second compound 3.16 µM, first compound 0.1 µM) of 0.74% and a viability, T/C (second compound 3.16 µM, first compound 0.316 µM) of 0.43%. It also gave a viability, T/C (second compound 3.16 µM, first compound 1 µM) of 0.7%, a viability, T/C (second compound 3.16 µM, first compound 3.16 µM) of 0.52% and a viability, T/C (second compound 3.16 µM, first compound 10 µM) of 3.57%. For the same compound, the viability, T/C (second compound 10 µM, first compound 0.0316 µM) was 0.25%, the viability, T/C (second compound 10 µM, first compound 0.1 µM) was 1.16% and the viability, T/C (second compound 10 µM, first compound 0.316 µM) was 0.37%. It also gave a viability, T/C (second compound 10 µM, first compound 1 µM) of 0.34%, a viability, T/C (second compound 10 µM, first compound 3.16 µM) of 0.32% and a viability, T/C (second compound 10 µM, first compound 10 µM) of 2.82%.
